Results from ChEMBL document CHEMBL6127049, “Discovery of the selective and nanomolar inhibitor of DPP-4 more potent than sitagliptin by structure-guided rational design” (Eur J Med Chem, 2024).
pIC50: −log10 of the molar value. Activity calls are given as the source filed them. No cut-off for these calls is given here.

What was measured:
Rattus norvegicus [1] = assay: Anti-diabetic activity in normal Wistar rat model assessed as blood glucose level at 20 mg/kg, po followed by treated administered 3 mg/kg orally measured after 90 mins by Oral glucose tolerance test (reference value: 134.11 + /- 4.64 mg/dL); assay type: functional; conditions: 1.5 h
Rattus norvegicus [2] = assay: Anti-diabetic activity in normal Wistar rat model assessed as blood glucose level at 20 mg/kg, po followed by treated administered 3 mg/kg orally measured after 60 mins by Oral glucose tolerance test (reference value: 153.74 + /- 3.94 mg/dL); assay type: functional; conditions: 1 h
Rattus norvegicus [3] = assay: Anti-diabetic activity in STZ-induced type 2 diabetes male Wistar albino rat model assessed as fasting blood glucose level at 20 mg/kg, po measured on day 1; assay type: functional; conditions: time 1 day
Rattus norvegicus [4] = assay: Anti-diabetic activity in normal Wistar rat model assessed as blood glucose level at 10 mg/kg, po followed by treated administered 3 mg/kg orally measured immediately after administration by Oral glucose tolerance test (reference value: 105.12 mg/dL); assay type: functional
Rattus norvegicus [5] = assay: Antihyperlipidemic effect in STZ-induced type 2 diabetes male Wistar albino rat model assessed as total cholesterol level at 20 mg/kg, po measured after 4 weeks (reference value: 227.04 +/- 4.10 mg/dL); assay type: functional
Dipeptidyl peptidase 4 = Dipeptidyl peptidase 4 (Homo sapiens, UniProt P27487); assay: Inhibition of DPP4 (unknown origin) assessed as hydrolysis rate using Gly-pro-p-nitroanilide as substrate measured after 20 mins incubation by fluorometric assay
[6] = Acute toxicity in Balb/C mouse assessed as morphological changes in unusual behavior at 1250 to 2000 mg/kg, po; assay type: organism-based; conditions: in vivo, dose 1250-2000 mg/kg
[7] = Acute toxicity in Balb/C mouse assessed as morphological changes in convulsions at 1250 to 2000 mg/kg, po; assay type: organism-based; conditions: in vivo, dose 1250-2000 mg/kg
Rattus norvegicus [8] = assay: Reduction of serum glutamate pyruvate transaminase (SGPT) level in STZ-induced type 2 diabetes male Wistar albino rat model at 10 mg/kg, po measured after 4 weeks by hepatic function test; assay type: functional, organism-based

Sequence of Dipeptidyl peptidase 4 (P27487 whole entry): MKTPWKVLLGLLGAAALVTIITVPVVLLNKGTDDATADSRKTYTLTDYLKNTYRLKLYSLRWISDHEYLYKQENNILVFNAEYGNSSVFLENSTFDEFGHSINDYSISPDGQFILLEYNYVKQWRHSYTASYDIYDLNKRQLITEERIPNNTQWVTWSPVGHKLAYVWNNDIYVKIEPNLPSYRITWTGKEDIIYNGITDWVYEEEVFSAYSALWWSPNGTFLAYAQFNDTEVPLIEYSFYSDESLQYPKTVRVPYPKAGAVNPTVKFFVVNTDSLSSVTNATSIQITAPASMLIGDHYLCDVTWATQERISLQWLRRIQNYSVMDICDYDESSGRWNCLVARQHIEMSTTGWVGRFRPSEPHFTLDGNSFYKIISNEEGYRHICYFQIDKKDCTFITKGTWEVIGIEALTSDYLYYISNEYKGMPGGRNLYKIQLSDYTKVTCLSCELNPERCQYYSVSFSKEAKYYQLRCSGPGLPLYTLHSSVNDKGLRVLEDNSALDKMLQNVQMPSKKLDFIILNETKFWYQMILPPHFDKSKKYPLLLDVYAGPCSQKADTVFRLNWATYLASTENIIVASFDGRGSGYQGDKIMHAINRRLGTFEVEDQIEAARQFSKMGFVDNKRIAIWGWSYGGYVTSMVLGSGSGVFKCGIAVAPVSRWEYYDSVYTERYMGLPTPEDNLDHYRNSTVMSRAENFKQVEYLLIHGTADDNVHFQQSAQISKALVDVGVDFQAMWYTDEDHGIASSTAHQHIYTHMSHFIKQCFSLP

CC1=C([N+](=O)[O-])C(c2ccc(F)c(F)c2)N=C(N)N1C(=O)CN1Cc2cn(S(C)(=O)=O)nc2C1 (centres undefined)
Activity (Rattus norvegicus [1]): 110.57 mg/dL | Activity (Rattus norvegicus [2]): 115.22 mg/dL | Activity (Rattus norvegicus [3]): 294 mg/dL | Activity (Rattus norvegicus [4]): 103.57 mg/dL | Activity (Rattus norvegicus [5]): 137.34 mg/dL | pIC50 (Dipeptidyl peptidase 4): 7.26 | Activity [6]: Non-Toxic | Activity [7]: Non-Toxic | Activity (Rattus norvegicus [8]): Active
